Assay results reported in PubChem BioAssay (NCI).
“And” between values parts separate entries of the source, which are not always exact repeats. Identical values can stand only once.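 Where inhibition never reached the appropriate level, the endpoint shown equals the highest concentration tested. Otherwise, values were interpolated linearly from a five-concentration, 48-hour dose response in 96-well plates. At the GI50, growth is halved. TGI: total growth inhibition.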

Assays:
Assay in all cases: growth of human tumour cells (NCI), 48 h
ACHN renal = system: ACHN renal
CCRF-CEM leukemia = system: CCRF-CEM leukemia
DU-145 prostate = system: DU-145 prostate
HS 578T breast = system: HS 578T breast
K-562 leukemia = system: K-562 leukemia
NCI-H522 lung = system: NCI-H522 lung
SK-MEL-28 melanoma = system: SK-MEL-28 melanoma
SN12C renal = system: SN12C renal
SNB-19 CNS = system: SNB-19 CNS
SNB-75 CNS = system: SNB-75 CNS

Structure (SMILES) | TGI (ACHN renal) | TGI (CCRF-CEM leukemia) | TGI (DU-145 prostate) [µM] | TGI (HS 578T breast) [µM] | TGI (K-562 leukemia) | TGI (NCI-H522 lung) | TGI (SK-MEL-28 melanoma) | TGI (SN12C renal) | TGI (SNB-19 CNS) | TGI (SNB-75 CNS) | GI50 (CCRF-CEM leukemia) | GI50 (DU-145 prostate) [µM] | GI50 (HS 578T breast) [µM] | GI50 (K-562 leukemia) | GI50 (NCI-H522 lung) [µM] | GI50 (SN12C renal) [µM] | GI50 (SNB-19 CNS) [µM] | GI50 (SNB-75 CNS) [µM] | GI50 (ACHN renal) [µM] | GI50 (SK-MEL-28 melanoma) [µM]
CCCOc1ccc(-c2nc(-c3ccc(N=Cc4ccc(N(CCOS(C)(=O)=O)CCOS(C)(=O)=O)cc4C)cc3)cs2)cc1 | 18.7 µM | > 100 µM | 18.1 | > 90.9 | > 100 µM | 4.99 µM | > 100 µM | > 92.6 µM | > 94.5 µM | 18 µM |  |  |  |  |  |  |  |  |  | 
NC(=NCCCC1(c2ccccc2)CCCC1)Nc1ccc(Cl)cc1 |  | 6.29 µM | 3.29 | 5.03 | 4.45 µM | 3.32 µM |  | 3.37 µM | 3.98 µM | 2.31 µM | 2.18 µM | 1.8 | 2.19 | 1.55 µM | 1.68 | 1.77 | 1.81 | 1.07 |  | 
C[C@H](N)C(=O)N[C@@H]1[C@H]2C(=C(O)C[C@@H](O)[C@@H]2O)C(=O)O[C@]1(C)C(Cl)Cl | 5.21 µM and 1.58 µM | 2.25 µM and 1.58 µM |  | 0.634 | 9.75 µM and 2.84 µM | 0.955 µM and 0.755 µM | 2.75 µM and 1.65 µM | 1.23 µM and 1.67 µM | 6.02 µM and 1.72 µM | 3.85 µM and 1.07 µM | 0.108 µM and 0.087 µM | 0.372 |  | 0.229 µM and 0.233 µM | 0.191 | 0.212 | 0.242 | 0.226 | 0.309 | 
CCNCCC1(CC)C(=O)NC(=O)NC1=O | > 100 µM | > 100 µM | > 100 | > 100 | > 100 µM | > 100 µM | > 100 µM | > 100 µM | > 100 µM | > 100 µM | > 100 µM |  |  |  |  |  |  |  |  | 
CNC(=O)c1c(NC(=O)c2ccc(C(F)(F)F)cc2)sc2c1CCC(=O)C2 | 1.9 µM |  | > 100 | 13.2 |  | 1.92 µM | 3.67 µM | 24.1 µM | > 65.9 µM | 3.95 µM | 0.155 µM | 4.18 | 0.774 | 0.193 µM | 0.251 | 0.69 | 0.735 | 0.714 | 0.322 | 0.864
CC(C)CCSC1=CC(=O)c2ccccc2C1=O | 5.69 µM | 0.62 µM | 25.8 | 30.7 | 1.2 µM | 6.38 µM | 10.7 µM | 25.8 µM | > 100 µM | > 46.9 µM | 0.215 µM | 12.1 | 5.5 | 0.313 µM | 1.6 | 12.9 | 30 | 0.811 | 1.84 | 5.7
CO/[N+]([O-])=C\C(=O)N/C=C/C(=O)O | > 100 µM | > 100 µM | > 100 | > 100 | > 100 µM | > 100 µM | > 100 µM | > 100 µM | > 100 µM | > 100 µM |  |  |  |  |  |  |  |  |  | 
NC(=O)/C(=C\c1ccncc1)c1cccc2ccccc12 | > 100 µM | > 100 µM | > 100 | > 100 | > 100 µM | > 100 µM | > 100 µM | > 100 µM | > 100 µM | > 100 µM |  |  |  |  |  |  |  |  |  | 
CN[C@@H](C)C(=O)N[C@H]1CN(C(=O)CC(C)C)CC[C@H]2CC[C@@H](C(=O)NC(c3ccccc3)c3ccccc3)N2C1=O | > 100 µM | > 100 µM | > 100 | > 100 | > 100 µM | > 78.9 µM | > 100 µM | > 100 µM | > 100 µM | > 100 µM | > 100 µM | > 100 | > 81.7 | 97.9 µM | 17.6 | > 100 | > 100 | 15.7 | > 100 | > 100
COc1c2ccoc2cc2oc(=O)ccc12 | > 100 µM | > 100 µM | > 100 | > 100 | > 100 µM | > 100 µM | > 100 µM | > 100 µM | > 100 µM | > 100 µM |  |  |  |  |  |  |  |  |  | 
Cc1ncc(C(=O)Nc2ccc(CN3CCN(C)CC3)c(C(F)(F)F)c2)cc1C#Cc1cnc(N)c2cnccc12 | 1.03 µM | 3.46 µM | 6.91 | 0.696 | 1.29 µM | 13.1 µM | 0.376 µM | 11.5 µM | 17.6 µM | 0.616 µM | 0.0906 µM | 0.0636 | 0.058 |  | 0.0654 | 0.037 | 0.684 | 0.0899 | 0.133 | 0.0181
COc1cc(-c2nc(NC(C)=O)sc2-c2ccnc(NCCNS(=O)(=O)c3ccccc3)n2)ccc1Cl | > 100 µM | > 100 µM | > 100 | > 100 | > 100 µM | 8.72 µM | > 100 µM | > 100 µM | > 100 µM | 7.19 µM | 4.03 µM | 5.11 | 6.61 | 3.87 µM | 1.99 | 5.47 | 6.51 | 1.49 | 3.1 | 3.71
O=C(CCCCCCCn1cc(-c2cccnc2)nn1)Nc1ccccc1-c1ccccc1 | > 100 µM | > 100 µM | > 100 | > 100 | 44.7 µM |  | > 95 µM | > 100 µM | > 100 µM | > 100 µM | 0.435 µM | 0.569 | 7.22 | 0.0633 µM | 0.0508 | 0.0475 | 1.74 | 29.8 | 9.39 | 13.2
Cc1cccc(-c2nn3c(c2-c2ccnc4ccc(C(N)=O)cc24)CCC3)n1 | > 100 µM | > 100 µM | > 100 | > 100 | > 100 µM | > 100 µM | > 100 µM | > 100 µM | > 100 µM | > 100 µM | > 100 µM | > 100 | > 100 | > 100 µM | > 100 | > 100 | > 100 | > 100 | > 100 | > 100
